Measurements taken from PMC5848173, “PhcrTx2, a New Crab-Paralyzing Peptide Toxin from the Sea Anemone Phymanthus crucifer” (Toxins, 2018).
No end group written: not given here.

Columns and labels:
[1] = system: glutamate-gated currents in snail neurons; test: Glutamate-gated currents in isolated snail neurons (whole-cell patch clamp); type: cell-based, Helix aspersa; settings: glutamate 1 mM
Procedure: The effects of PhcrTx2 were studied in isolated mammalian and snail neurons using the whole cell patch-clamp technique. Animal care and procedures were in accordance with the National Institutes of Health Guide for the Care and Use of Laboratory Animals. All efforts were made to minimize animal suffering. The number of animals used for this work was kept to the minimum necessary for a meaningful interpretation of the data.
Experiments to study glutamate-activated currents were performed in isolated neurons of the land snail Helix aspersa. The subesophageal mass of the snail was dissected, and put into the Ringer solution for snails (Supplementary Table S4) containing trypsin (2 mg/mL for 30 min, at 37 °C). After enzymatic treatment, the preparation was washed with normal solution for snails, and the neurons were mechanically dissociated, plated on glass coverslips (Corning) pretreated with poly-D-lysine (Sigma-Aldrich), and placed onto 35-mm culture dishes (Corning). Neurons were maintained at room temperature (23–25 °C) for at least 30 min before using, in order to allow the isolated cells to adhere to the coverslips. The whole-cell recording was carried out using the same experimental conditions that were described in Section 5.2.2.
Glutamate currents were elicited by a fast glutamate application (about 40 ms) by shifting one of the three outlets of a fast change perfusion system (SF-77B, Warner Inst., Hamden, CT, USA) while keeping the cell at a holding potential (Vh) of −100 mV. The interval between glutamate applications was one minute, to guarantee that the current completely recovered from desensitization. The pH of glutamate solution was checked before each experiment to avoid the potential activation of proton-gated currents. At the beginning of this study, experiments were designed to compare the effect of the toxin using two application protocols.
The solutions used in the experiments are depicted in Supplementary Table S4. The concentration-response curves were fitted to the Hill equation following the procedure described in Section 5.2.2.

[2] = Anthopleura elegantissima toxins; ref [5],[38]; cited from earlier work
Source text: (§1) The inhibition of PhcrTx2 on glutamate-gated currents in snail neurons, and also on voltage-activated K^+ currents in DRG neurons, seems to be of about similar potency and slightly different in efficacy. PhcrTx2 also acted on voltage-dependent Na^+-channels of DRG neurons but with lower efficacy, in comparison with its effect on K^+ channels. […] These facts resemble previous re ...

[3] = system: ASIC3; settings: ref [38], cited from earlier work
Source text: as §1

[4] = system: Kv3.4 channels; settings: ref [38],[58]; cited from earlier work
Source text: as §1

[5] = system: heteromeric channels that contain the ASIC3 subunit; settings: except the ASIC2a + 3 current; ref [38]; cited from earlier work
Source text: as §1

[6] = system: insect and mammalian Nav channels; settings: ref [38],[58]; cited from earlier work
Source text: as §1

[7] = system: crabs; settings: Antheopsis maculata toxin; ref [21]; cited from earlier work
Source text: Many of these peptides have been classified as voltage-gated sodium channel toxins, whereas few other crab-paralyzing peptides act on different targets, such as voltage-gated potassium channels. On the other hand, other paralyzing toxins seem to belong to new classes of toxins. In this work, we found a diversity of paralyzing toxins from the sea anemone P. crucifer by using a crab toxicity assay for biological activity screening during the purification process. Sixteen chromatographic fractions sh ... || (+ 1 further places)

Question: Which “glutamate-evoked current at positive potential” value ([1]; 80 mV, n = 5) does the source give for `N[C@@H](CCC(=O)O)C(=O)O` [glutamate] here?
Answer: 0.3 ± 0.1 nA

Question: And the glutamate-evoked current ([1]; holding potential −100 mV, n = 5, average)?
Answer: about 2.6 ± 1.4 nA

Question: What about the “reversal potential of glutamate-evoked current” value ([1]; average, "close to") of the same compound?
Answer: ~0 mV

Question: Which target selectivity [2] does the source give for “APETx1: toxin from Anthopleura elegantissima (UniProtKB P61541) (GTTCYCGKTIGIYWFGTKTCPSNRGYTGSCGYFLGICCYPVD; UniProt P61541 1-42, looked up)” here?
Answer: lack of target selectivity

Question: For “APETx2: toxin from Anthopleura elegantissima, ASIC3 blocker (UniProtKB P61542) (GTACSCGNSKGIYWFYRPSCPTDRGYTGSCRYFLGTCCTPAD; UniProt P61542 1-42, looked up)”, which target selectivity [2] is on record?
Answer: lack of target selectivity

Question: And the IC50 ([3]; reversible blocker, read-out: IC50, peak component of the ASIC3 current)?
Answer: 63 nM

Question: And the “effect on the sustained component of ASIC3 current” value ([3]; sustained component)?
Answer: no effect

Question: What about the “inhibition of Kv3.4 channels” value [4] of the same compound?
Answer: partially inhibits Kv3.4 channels

Question: And the “effect on heteromeric channels containing ASIC3” value [5]?
Answer: affects heteromeric channels that contain the ASIC3 subunit, except the ASIC2a + 3 current

Question: And the “effect on Nav channels” value [6]?
Answer: inhibiting the sodium conductance without affecting the inactivation and shifting activation to a depolarizing direction

Question: With “Am II: crab-paralyzing toxin from Antheopsis maculata (UniProtKB P69930) (ALLSCRCEGKTEYGDKWLFHGGCPNNYGYNYKCFMKPGAVCCYPQN; ends and bridges not checked; cysteine pairing not given here; UniProt P69930 33-78, looked up)” as the compound, how does the crab-paralyzing activity [7] read?
Answer: crab-paralyzing toxin
